Test: Inhibition of influenza A virus neuraminidase using 2-(4-methylumbelliferyl)-a-D-acetylneuraminic acid as substrate incubated for 30 mins by fluorescence based analysis

C=C1C[C@@H]2[C@@]3(C)CCC(=O)C(C)(C)[C@@H]3C(=O)C[C@@]2(C)[C@@]2(C(=O)OC)C(=O)[C@](C)(O)C(=O)[C@@]12C
IC50: 18 nM
